In patent US6737383B1, “Herbicidal oxadiazolidines” (priority 1999, dated 2004):

Experiments:
bamyardgrass = assay: Test B flood test barnyardgrass; type: in vivo, Echinochloa crus-galli
In short: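 Read-out is a visual response score from 0 (no effect) to 10 (complete control), assigned by comparison with untreated controls. Treatment was applied at the 2-leaf stage, and plants stayed in the greenhouse for twelve to sixteen days before scoring.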

Spanishneedles = assay: Test D Spanishneedles; type: in vivo, Bidens bipinnata; conditions: Postemergence, 0 to 100 scale
surinam grass = assay: Test B pre/postemergence surinam grass; type: in vivo, Brachiaria decumbens
In short: (§1)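 Test chemicals in a non-phytotoxic solvent mixture with surfactant were sprayed preemergence onto planted seeds and postemergence onto plants 2 to 18 cm tall (1- to 4-leaf stage). After twelve to sixteen days in a greenhouse, injury was visually rated against untreated controls from 0 (no effect) to 10 (complete control).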

goosegrass = assay: Test D goosegrass; type: in vivo, Eleusine indica; conditions: Postemergence, 0 to 100 scale
guineagrass = assay: Test D guineagrass; type: in vivo, Panicum maximum; conditions: Postemergence, 0 to 100 scale
large crabgrass = assay: Test D large crabgrass; type: in vivo, Digitaria sanguinalis; conditions: Postemergence, 0 to 100 scale
Green foxtail = assay: Test D green foxtail; type: in vivo; conditions: Postemergence, 0 to 100 scale, 0 no injury, 100 complete control
common groundsel = assay: Test D common groundsel; type: in vivo, Senecio vulgaris; conditions: Postemergence, 0 to 100 scale
blackgrass = assay: Test B pre/postemergence blackgrass; type: in vivo, Alopecurus myosuroides
In short: as §1

sugar beet = assay: Test B pre/postemergence sugar beet; type: in vivo, Beta vulgaris; conditions: for Sugarbeets plant response rating: scale of 0 to 10 where 0 is no effect and 10 is complete control
In short: as §1

common pursiane = assay: Test D common purslane; type: in vivo, Portulaca oleracea; conditions: Postemergence, 0 to 100 scale
purple nutsedge = assay: Test D purple nutsedge; type: in vivo, Cyperus rotundus; conditions: Postemergence, 0 to 100 scale
[1] = Rate 16 g/ha, 0 no injury, 100 complete control
[2] = Rate 32 g/ha, 0 no injury, 100 complete control
[3] = Rate 64 g/ha, 0 no injury, 100 complete control
[4] = Rate 125 g/ha, 0 no injury, 100 complete control
[5] = Postemergence, Rate 125 g/ha, scale 0 to 10, 0 is no effect, 10 is complete control
[6] = Preemergence, Rate 62 g/ha, scale 0 to 10 (0 no effect, 10 complete control)
[7] = Preemergence, Rate 250 g/ha, scale of 0 to 10 where 0 is no effect and 10 is complete control
[8] = Preemergence, Rate 500 g/ha, scale of 0 to 10 where 0 is no effect and 10 is complete control
[9] = Rate 62 g/ha, Postemergence, scale of 0 to 10 where 0 is no effect and 10 is complete control
[10] = Rate 250 g/ha, Postemergence, scale of 0 to 10 where 0 is no effect and 10 is complete control
[11] = Rate 500 g/ha, Postemergence, scale 0 to 10, 0 no effect, 10 complete control

CCC(CC)n1c(=O)on(C(=O)N(c2ccc(F)cc2)C(C)C)c1=O [Compound 358]
Plant response rating, Barnyardgrass (bamyardgrass; Postemergence (flood test), Rate 125 g/ha, scale 0 to 10, 0 is no effect, 10 is complete control): 2
Barnyardgrass plant response rating (bamyardgrass; Rate 62 g/ha, Postemergence (flood test species), scale of 0 to 10 where 0 is no effect and 10 is complete control): 2
Plant response rating, Barnyardgrass (0 to 10 scale, 0 is no effect, 10 is complete control) (bamyardgrass; Rate 62 g/ha, flood test species, Pre-emergence, visual evaluation after twelve to sixteen days): 0
Barnyardgrass plant response rating (bamyardgrass; Rate 125 g/ha, Pre-emergence, flood test species, scale 0 to 10 where 0 is no effect and 10 is complete control): 0
Plant response rating, Barnyardgrass (bamyardgrass; Rate 250 g/ha, Postemergence (flood test species), scale of 0 to 10 where 0 is no effect and 10 is complete control): 9
Barnyardgrass plant response rating (bamyardgrass; Rate 250 g/ha, Pre-emergence, flood-test species, scale 0 to 10, 0 is no effect, 10 is complete control): 9
Barnyardgrass plant response rating (bamyardgrass; Rate 500 g/ha, Pre-emergence, flood test species, scale 0 to 10 (0 no effect, 10 complete control)): 9
Plant response rating, Spanishneedles (Spanishneedles; [1]): 0
Plant response rating, Spanishneedles (Spanishneedles; [2]): 0
Spanishneedles plant response rating (Spanishneedles; [3]): 0
Spanishneedles plant response rating (Spanishneedles; [4]): 0
Plant response rating, Spanishneedles (Spanishneedles; Rate 250 g/ha): 0
Plant response rating, B. signalgrass (surinam grass; [5]): 0
Plant response rating, B. signalgrass (surinam grass; [6]): 1
B. signalgrass plant response rating (0 to 10 scale, 0 is no effect, 10 is complete control) (surinam grass; Preemergence, Rate 125 g/ha): 3
B. signalgrass plant response rating (surinam grass; [7]): 5
B. signalgrass plant response rating (surinam grass; [8]): 7
B. signalgrass plant response rating (surinam grass; [9]): 0
Plant response rating, B. signalgrass (surinam grass; [10]): 1
Plant response rating, B. signalgrass (surinam grass; [11]): 2
Plant response rating, Goosegrass (goosegrass; [1]): 0
Plant response rating, Goosegrass (goosegrass; [2]): 20
Plant response rating, Goosegrass (goosegrass; [3]): 100
Plant response rating, Goosegrass (goosegrass; [4]): 100
Plant response rating, Goosegrass (goosegrass; Rate 250 g/ha): 100
Plant response rating, Guineagrass (guineagrass; [1]): 0
Plant response rating, Guineagrass (guineagrass; [2]): 0
Guineagrass plant response rating (guineagrass; [3]): 20
Plant response rating, Guineagrass (guineagrass; [3]): 100
Plant response rating, Guineagrass (guineagrass; [4]): 100
Plant response rating, Guineagrass (guineagrass; Rate 250 g/ha): 100
Plant response rating, Large crabgrass (large crabgrass; [1]): 0
Plant response rating, Large crabgrass (large crabgrass; [2]): 40
Plant response rating, Large crabgrass (large crabgrass; [3]): 100
Plant response rating, Large crabgrass (large crabgrass; [4]): 100
Plant response rating, Large crabgrass (large crabgrass; Rate 250 g/ha): 100
Plant response rating, Green foxtail (Green foxtail; Rate 64 g/ha): 100
Plant response rating, Green foxtail (Green foxtail; Rate 125 g/ha): 100
Plant response rating, Com. groundsel (common groundsel; [1]): 0
Plant response rating, Com. groundsel (common groundsel; [2]): 0
Plant response rating, Com. groundsel (common groundsel; [3]): 0
Plant response rating, Com. groundsel (common groundsel; Rate 250 g/ha): 40
Plant response rating, Blackgrass (blackgrass; [5]): 6
Plant response rating, Blackgrass (blackgrass; [6]): 4
Blackgrass plant response rating (0 to 10 scale) (blackgrass; Preemergence, Rate 125 g/ha): 8
Blackgrass plant response rating (blackgrass; [7]): 10
Blackgrass plant response rating (blackgrass; [8]): 10
Blackgrass plant response rating (blackgrass; [9]): 2
Plant response rating, Blackgrass (blackgrass; [10]): 8
Plant response rating, Blackgrass (blackgrass; [11]): 8
Plant response rating, Sugarbeets (sugar beet; [5]): 0
Plant response rating, Sugarbeets (sugar beet; [6]): 0
Sugarbeets plant response rating (0 to 10 scale) (sugar beet; Preemergence, Rate 125 g/ha): 1
Sugarbeets plant response rating (sugar beet; Preemergence, Rate 250 g/ha): 3
Sugarbeets plant response rating (sugar beet; Preemergence, Rate 500 g/ha): 3
Sugarbeets plant response rating (sugar beet; Rate 62 g/ha, Postemergence): 0
Plant response rating, Sugarbeets (sugar beet; [11]): 4
Plant response rating, C. purslane (common pursiane; [1]): 0
Plant response rating, C. purslane (common pursiane; [2]): 0
Plant response rating, C. purslane (common pursiane; [3]): 0
Plant response rating, C. purslane (common pursiane; [4]): 0
Plant response rating, C. purslane (common pursiane; Rate 250 g/ha): 0
Plant response rating, Purple nutsedge (purple nutsedge; [1]): 0
Plant response rating, Purple nutsedge (purple nutsedge; [2]): 0
Purple nutsedge plant response rating (purple nutsedge; [3]): 0
Purple nutsedge plant response rating (purple nutsedge; [4]): 0
Plant response rating, Purple nutsedge (purple nutsedge; Rate 250 g/ha): 10
